Results: US8754067B2, “22-haloacetoxy-homopregnacalciferol analogs and their uses” (Wisconsin Alumni Research Foundation, priority 2010, dated 2014)

Assays:
DU-145 prostate cells = test: Cell viability, DU-145 prostate cells; format: cell-based; details: four days growth, methylene blue; FIG. 6A/6B
Procedure: (§1) Various cell lines were plated, administered a range of drug concentrations one time, allowed to grow for four days and then the number of cells present counted and expressed as a percentage of those present in the vehicle control plates. […] The number of live cells was expressed as a percentage of the total present. Each assay was done in duplicate.

HL-60 leukemia cells [1] = test: HL-60 differentiation (nitro blue tetrazolium reduction); format: cell-based, human; details: FIG. 2
Procedure: The study drugs were dissolved in ethanol and the concentrations determined using UV spectrophotometry. Serial dilutions were prepared so that a range of drug concentrations could be tested without changing the final concentration of ethanol (≦0.2%) present in the cell cultures.
Human promyelocytic leukemia (HL60) cells were grown in RPMI-1640 medium containing 10% fetal bovine serum. The cells were incubated at 37° C. in the presence of 5% CO2.
HL60 cells were plated at 1.2×10^5 cells/ml. Eighteen hours after plating, cells in duplicate were treated with drug. Four days later, the cells were harvested and a nitro blue tetrazolium reduction assay was performed (Collins et al., 1979; J. Exp. Med. 149:969-974). The percentage of differentiated cells was determined by counting a total of 200 cells and recording the number that contained intracellular black-blue formazan deposits. Verification of differentiation to monocytic cells was determined by measuring phagocytic activity (data not shown).

[2] = test system: intestinal calcium transport; test: Intestinal calcium transport (everted gut sac) in vitamin D-deficient rats; format: in vivo, rat; details: 4 consecutive ip doses, FIG. 8
Procedure: (§2) Male, weanling Sprague-Dawley rats were placed on Diet 11 (Suda et al, J. Nutr. 100:1049, 1970) (0.47% Ca)+AEK oil for one week followed by Diet 11 (0.02% Ca)+AEK oil for 3 weeks. The rats were then switched to the same diet containing 0.47% Ca for one week followed by two weeks on the same diet containing 0.02% Ca. Dose administration began during the last week on 0.02% calcium diet. Four consecutive intraperitoneal (ip) doses were given approximately 24 hours apart. Twenty-four hours after the last dose, blood was collected from the severed neck and the concentration of serum calcium determined by atomic absorption spectrometry as a measure of bone calcium mobilization. The first 10 cm of the intestine was also collected for intestinal calcium transport analysis using the everted gut sac method.

HL-60 leukemia cells [3] = test: Cell viability, HL-60 leukemia cells; format: cell-based, human; details: four days growth, methylene blue; FIG. 4A/4B
Procedure: as §1

[4] = test system: bone calcium mobilization; test: Bone calcium mobilization (serum calcium) in vitamin D-deficient rats; format: in vivo, rat; details: vitamin D-deficient rats on 0.02% Ca diet, FIG. 7
Procedure: as §2

[5] = test system: H-82 lung carcinoma cells; test: Cell viability, H-82 lung carcinoma cells; format: cell-based; details: four days growth, methylene blue; FIG. 5A/5B
Procedure: as §1

[6] = target: T1, full-length recombinant rat vitamin D receptor (Rattus norvegicus, UniProt P13053); test: Vitamin D receptor binding, competition with [3H]-1,25(OH)2D3; details: FIG. 1
T1 construct: Full-length recombinant rat receptor was expressed in E. coli; histidine tag (C); made in house; host or cells: E. coli BL21 (DE3) Codon Plus RIL
T1 sequence (P13053 1-423): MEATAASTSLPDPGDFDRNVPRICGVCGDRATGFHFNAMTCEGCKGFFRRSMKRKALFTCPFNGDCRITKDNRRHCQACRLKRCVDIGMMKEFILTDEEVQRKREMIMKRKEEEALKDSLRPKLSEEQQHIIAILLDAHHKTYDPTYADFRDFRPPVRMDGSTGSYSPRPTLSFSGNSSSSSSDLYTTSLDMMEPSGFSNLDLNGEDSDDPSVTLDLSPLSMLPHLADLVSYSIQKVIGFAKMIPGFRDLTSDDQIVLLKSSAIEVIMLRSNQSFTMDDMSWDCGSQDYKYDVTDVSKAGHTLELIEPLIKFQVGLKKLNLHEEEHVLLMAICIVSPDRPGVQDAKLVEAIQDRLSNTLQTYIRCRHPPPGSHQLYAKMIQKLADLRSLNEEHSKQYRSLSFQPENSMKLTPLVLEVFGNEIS
Procedure: Full-length recombinant rat receptor was expressed in E. coli BL21 (DE3) Codon Plus RIL cells and purified to homogeneity using two different column chromatography systems. The first system was a nickel affinity resin that utilizes the C-terminal histidine tag on this protein. The protein that was eluted from this resin was further purified using ion exchange chromatography (S-Sepharose Fast Flow). Aliquots of the purified protein were quick frozen in liquid nitrogen and stored at −80° C. until use. For use in binding assays, the protein was diluted in TEDK50 (50 mM Tris, 1.5 mM EDTA, pH7.4, 5 mM DTT, 150 mM KCl) with 0.1% Chaps detergent. The receptor protein and ligand concentration was optimized such that no more than 20% of the added radiolabeled ligand was bound to the receptor.
Radiolabeled and unlabeled ligands were added to 100 mcl of the diluted protein at a final ethanol concentration of ≦10%, mixed and incubated overnight on ice to reach binding equilibrium. The following day, 100 mcl of hydroxylapatite slurry (50%) was added to each tube and mixed at 10-minute intervals for 30 minutes. […] After the final wash, the pellets were transferred to scintillation vials containing 4 ml of Biosafe II scintillation cocktail, mixed and placed in a scintillation counter. Total binding was determined from the tubes containing only radiolabeled ligand.

[7] = test system: 24-hydroxylase (24 Ohase) gene promoter in ROS 17/2.8 (bone) cells; test: In vitro transcription assay (luciferase reporter); format: cell-based; details: ROS 17/2.8 cells, 16 hours after dosing; FIG. 3; read-out: EC50, transcriptional activity in bone cells
Procedure: Transcription activity was measured in ROS 17/2.8 (bone) cells that were stably transfected with a 24-hydroxylase (24 Ohase) gene promoter upstream of a luciferase reporter gene (Arbour et al., 1998). Cells were given a range of doses. Sixteen hours after dosing the cells were harvested and luciferase activities were measured using a luminometer. RLU=relative luciferase units.

[8] = Body weight of dosed animals; format: in vivo, rat; details: various doses, throughout the test period; FIG. 9
Procedure: as §2

SMILES	cell viability of DU-145 prostate cells (DU-145 prostate cells)	EC50 (HL-60 leukemia cells [1]; four days after treatment, read-out: EC50, HL-60 cell differentiation) [nM]	intestinal calcium transport activity ([2]; 780 pmol)	cell viability of HL-60 leukemia cells (HL-60 leukemia cells [3])	bone calcium mobilization (serum calcium) ([4]; 780 pmol, 4 consecutive ip doses)	cell viability of H-82 lung carcinoma cells [5]	HL-60 cell differentiation activity (HL-60 leukemia cells [1])	Ki ([6]; full-length recombinant rat VDR) [nM]	times less active than 1α,25-dihydroxyvitamin D3 in VDR binding ([6]; relative to natural hormone) [times]	intestinal calcium transport activity ([2]; 35,100 pmol/rat)	EC50 [7] [nM]	bone calcium mobilization (serum calcium) ([4]; 105,300 pmol/day ip for 4 consecutive days)	change in body weight [8]
C=C1/C(=C\C=C2/CCC[C@]3(C)[C@@H]([C@H](C)CCCC(C)(C)O)CC[C@@H]23)C[C@@H](O)C[C@@H]1O [1,25(OH)2D3, 1α,25-dihydroxyvitamin D3, reference compound]	neither AB-47 nor 1,25(OH)2D3 have any significant effect	2	significant increase in activity	does not have any significant effect	significant increases in serum calcium	does not have any significant effect							
C=C1CC[C@H](O)C/C1=C/C=C1\CCC[C@]2(C)[C@@H]([C@H](C)COC(=O)CBr)CC[C@@H]12 [AB-47, 22-bromoacetoxy-homopregnacalciferol]	neither AB-47 nor 1,25(OH)2D3 have any significant effect			kills HL-60 leukemia cells		kills H-82 lung carcinoma cells	does not promote HL60 differentiation	3	100	little to no activity	> 1000	little or no mobilization of bone calcium	substantially maintain their body weight
